Source: patent US6642214B1, “Detoxication of active pharmaceutical substances using cyclodextrine oligomers” (CeramOptec Industries, Inc., priority 1997, dated 2003)
Each block holds one substance with its values, some of them ahead of it.

What was measured:
[1] = Affinity constants of β-cyclodextrin dimers/trimers for guest compounds (competition with TNS, fluorescence spectroscopy); format: binding
Method: Binding constants can be determined in competition with 6-(p-toluidino)-2-naphthalenesulfonic acid (TNS). The measurement is performed by fluorescence spectroscopy according to Ruebner et al. (loc. cit.).
Due to the cyclodextrins being bonded on the secondary side, the cavities of the cyclodextrins are oriented towards each other. The cyclodextrins are preferably β-cyclodextrins. The distance between the cyclodextrin units is determined by selecting the spacer. Depending on the size of the compound to be enclosed, the spacer is selected such that the distance between the at least two cavities approximately matches the distance between two hydro-phobic groups of the pharmaceutically active substance. Preferred spacings are within a range of about 0.6 to 2 nm, more preferably in a range of about 0.8, 1.0, 1.2, 1.4, 1.6 and 1.8 nm.
Such rigid spacers can also be achieved by the use of appropriately functionalized (hetero)aromatics. For example, rigid spacers prevent too high a conformational flexibility, such as twisting of the two cyclodextrins involved in the binding. […] By the use of rigid spacers, affinity constants within a range of greater than 10^6, preferably greater than 10^7 and more preferably greater than 10^8 l/mol are achieved. Thus, rigid spacers are those which achieve correspondingly high stability constants of the complexes together with cyclodextrins involved in the binding and appropriate guest compounds.

[2] = Complex binding constant in competitive reaction with toluidinonaphthalenesulfonic acid; details: guest paclitaxel; competition with toluidinonaphthalenesulfonic acid; read-out: complex binding constant Ktaxol
Method: 250 mg (100 μmol) of the CD dimer di-β-CD(2N-A4C5A4) (see FIG. 5) was dissolved in 1 l of aqueous buffer (pH 7.35, Hepes 25 mM) at 60° C. and kept at this temperature with vigorous stirring. 8.5 mg of paclitaxel (10 μmol) was dissolved in 1 ml of dimethyl sulfoxide and added dropwise to the mixture with vigorous stirring. The mixture was kept at 60° C. for 24 hours with stirring, followed by cooling and freeze-drying the mixture.

[3] = spacer length 15-16 Å, guests paclitaxel, docetaxel

Substance: di-β-CD(—NH—(C3H6)—NHCO—(C3H6)—CONH—(C3H6)—NH—) [A3C5A3]
- Affinity constant, measured/estimated ([1]; spacer length 11-12 Å, guests colchicine, colchemide): 10^6-10^7 l/mol

- Kd [2]: 1400 nM
Substance: di-β-CD(—NH—(C4H8)—NHCO—(C3H6)—CONH—(C4H8)—NH—) [A4C5A4]
- Affinity constant, measured/estimated [1, 3]: 10^7 (dimer)- l/mol

Substance: di-β-CD(—NH—(C8H16)—NH—) [octyl-α,ω-diamide]
- Affinity constant, measured/estimated ([1]; spacer length 7-8 Å, guests 3^1,8^1-(di-t-butylphenoxy)-porphyrinoids, (tamoxifene), phenytoin): 10^6-10^7 l/mol

Substance: di-β-CD(—NH—(C2H4)—SH—[6-α-CD-6]—SH—(C2H4)—NH—)
- Affinity constant, measured/estimated ([1]; spacer length 13-14 Å, guests vinblastin, vincristin): ˜10^8 l/mol

Substance: di-β-CD(—NH—(C2H4)—SH-[6-(β,γ)-CD-6]-SH—(C2H4)—NH—)
- Affinity constant, measured/estimated [1, 3]: 3 · 10^9 (trimer) l/mol
